Several values for one entry are separate records, joined by “and”; a condition that tells them apart may be missing. Equal values may be shown once. Read-outs that look alike come from different tables or passages of the source.
Experiments:
pS6RP Ser235/236 = test: flow cytometry of S6RP phosphorylation in CD34+ progenitor cells from MF patients; format: cell-based, human; conditions: for normalized percentage of TPO-activated S6RP phosphorylation (p-S6RP): 2.0 μM, then TPO, one value per patient, TPO-treated vehicle = 100
Protocol: In this example, PBMCs were isolated from whole blood of myelofibrosis (MF) patients who had not received treatments (i.e. naïve patients) or received ruxolitinib (i.e. rux-treated patients). The cells were treated with 0.02, 0.2, or 2.0 μM of Compound B or vehicle (0.1% DMSO in 0.1% FBS/RPMI) for 2 hours at 37° C. The cells were then fixed, permeabilized, and stained for FACS analysis. Antibodies specific to p-AKT Ser473 and pS6RP Ser235/236 were used to detect AKT phosphorylation (p-AKT) and S6RP phosphorylation (p-S6RP) in CD34^+/CD3^−/CD14^−/CD19/CD66^− (BD Biosciences) gated cells using flow cytometry. The percentage of basal (i.e. untreated with TPO) AKT and S6RP phosphorylation were normalized to vehicle control (i.e. “no TPO” values shown in Table 2). A two-tailed paired t-test (GraphPad Prism) was used to calculate p-values. Values of p<0.05 were considered significant.
Also, PBMC cells were treated with Compound B and with TPO as described above. The percentage of TPO-activated AKT and S6RP phosphorylation were normalized to those of TPO-treated vehicle. […] Also, the inhibition to PI3K signaling was dose-dependent to Compound B.
Similar studies were conducted with PI3K inhibitors Compounds C and D. PBMC from MF patients had received ruxolitinib (rux) and MF patient had received Compound A. The cells were treated with Compounds C or D at 0, 20.0, 200.0, 2000.0 nM for 2 hours at 37° C. Cells were treated with TPO for 10 minutes. The percentage of basal p-AKT and p-S6RP levels were normalized to vehicle control and those of TPO-treated were normalized to TPO-treated vehicle control. The PI3K inhibitors Compounds C and D had the chemical names of (S)-2-(1-((9H-purin-6-yl)amino)ethyl)-6-fluoro-3-phenylquinazolin-4(3H)-one and (S)-2,4-diamino-6-(((5-chloro-8-fluoro-4-oxo-3-(pyridine-3-yl)-3,4-dihydroquinazolin-2-yl)(cyclopropyl)methyl)amino)pyrimidine-5-carbonitrile, respectively.

Pfeiffer cells = test: CellTiter-Glo cell viability of Pfeiffer cells with IL6; format: cell-based; conditions: Homo sapiens, 96 h, n=4, read-out: percentage of viable Pfeiffer cells, AVG; for viability at […]: 74 nM Compound B; for viability at 0.2 µM: 200 nM Compound B; for viability at 0.421 µM: 421 nM Compound B
Protocol: Next, Pfeiffer cells were treated with IL6 (0 or 3 ng/mL), Compound A (0, 136, 272, or 695 nM), and/or Compound B (0, 74, 200, or 421 nM) (n=4 per group) for 96 hours.
Cellular viability was determined using the CellTiter-Glo Luminescent Cell Viability Assay (Promega). The percentage of viable cells was normalized to the groups that were not treated with Compound A or Compound B, and standard deviation was calculated.

p-STAT5 = test: flow cytometry of p-STAT5 in TPO-stimulated CD34+ cells from MF patients on chronic ruxolitinib (Example 8); format: cell-based, human; conditions: 2 h, then TPO 50 ng/mL, one value per patient, TPO vehicle = 100
Protocol: In this study, PBMCs were isolated from the whole blood from five MF patients receiving chronic ruxolitinib treatment (rux 1-rux 5). The cells were treated with either vehicle, ruxolitinib, and/or Compound B for 2 hours then stimulated with TPO (50 ng/mL) for 10 minutes. Ruxolitinib at the dose of 1 or 20 nM and Compound B at the dose of 45, 200, or 700 nM were used.
The treated cells were then fixed, permeabilized and stained for FACS analysis using FACSCalibur analyzed using BD FACSDiva software.

pS6 Ser235/236 = test: Western blot of S6 phosphorylation in UT-7/TPO cells; format: cell-based; conditions: 2 h, then TPO 50 ng/mL 10 min, vs vehicle
Protocol: In addition, Compound B was examined for the effects on the PI3K signaling pathway by determining the levels of AKT and S6 phosphorylation with or without TPO activation. Two cell lines, BaF3/MPL and UT-7/TPO sensitive or responsive to TPO activation were used. The cells were starved (i.e. growing on medium having less FBS) in […] FBS/RPMI for two hours before treated with 0.1, 1.0, or 2.0 μM of Compound B or vehicle (0.1% DMSO in RPMI) for 2 hours at 37° C. To examine the TPO-activated phosphorylation, the cells were then treated or activated with 50 ng/mL of human recombinant TPO (Peprotech) for 10 minutes at 37° C. The TPO activation or treatment may reflect the conditions in diseased cells as the PI3K pathway is activated by TPO in myelofibrosis. After treating with compound and/or TPO, the cells were collected, lysed by lysis buffer (Cell Signaling), separated by SDS-PAGE, and analyzed by the Western blot using antibodies specific to p-AKT Ser473 or pS6 Ser235/236 (Cell Signaling). The phosphorylation levels in treated cells were calculated and compared to those of untreated cells (i.e. vehicle as negative control).

## CC[C@H](Nc1ncnc2[nH]cnc12)c1nc2cccc(F)c2c(=O)n1-c1ccccc1 [Compound B, (S)-2-(1-((9H-purin-6-yl)amino)propyl)-5-fluoro-3-phenylquinazolin-4(3H)-one]
pS6RP Ser235/236; progenitor cells of naïve MF patients
  normalized percentage of TPO-activated S6RP phosphorylation (p-S6RP): 23% and 45%
pS6RP Ser235/236; progenitor cells of rux-treated MF patients
  normalized percentage of TPO-activated S6RP phosphorylation (p-S6RP): 21% and 45% and 36% and 20% and 31%
pS6RP Ser235/236; 0.02-2.0 μM, 2 h, no TPO, MF progenitor cells vs untreated, data not shown
  basal p-S6RP levels: reduced levels
Pfeiffer cells; IL6 0 ng/mL
  viability at […]: 72%
  viability at 0.2 µM: 63%
  viability at 0.421 µM: 54%
Pfeiffer cells; IL6 3 ng/mL
  viability at […]: 95%
  viability at 0.2 µM: 91%
  viability at 0.421 µM: 83%
p-STAT5; Compound B 45 nM
  percentage of the p-STAT5 levels: 92% (2×) and 85% and 95% and 83%
p-STAT5; Compound B 200 nM
  percentage of the p-STAT5 levels: 93% and 83% and 91% and 72% and 90%
p-STAT5; Compound B 700 nM
  percentage of the p-STAT5 levels: 88% and 86% and 82% and 106% and 78%
pS6 Ser235/236; 0.1 μM
  reduced p-S6 levels: 13%
pS6 Ser235/236; 1.0 μM
  reduced p-S6 levels: 28%
pS6 Ser235/236; 2.0 μM
  reduced p-S6 levels: 48%

From patent US20160279135A1, “THERAPIES FOR TREATING MYELOPROLIFERATIVE DISORDERS” (Gilead Sciences, Inc., priority 2013, published 2016)
